Data: patent US11311522B1 (Cavion, Inc., priority 2018, dated 2022)
Values joined by “and” are separate entries in the source; they are usually repeats but may differ in a detail not shown here. Equal values may be shown once.

What was measured:
[1] = tested on: patients with schizophrenia; test: PN004: safety; format: in vivo, human
Excerpt: The primary efficacy endpoint was the mean change from baseline in the Positive and Negative Syndrome Scale (PANSS) total score at Week 4; secondary efficacy endpoints included responder rates on the PANSS total score at Week 4 and the change from baseline in the Clinical Global Impressions—Severity of Illness Scale at Week 4. Safety was monitored by adverse events, laboratory evaluations, ECGs, Holter monitoring, vital signs, the Simpson-Angus Scale, the Barnes Akathisia Rating Scale, the Abnormal Involuntary Movement Scale, and the Columbia Suicide-Severity Rating scale (C-SSRS).

[2] = tested on: patients with essential tremor; test: T-CALM: TETRAS-PS spiral task (item 6); format: in vivo, human
Experimental: The Archimedes spiral item of the TETRAS-PS subscale (Item 6) incorporates a routine clinical assessment of functional tremor impact into the TETRAS scoring of tremor severity. […] The investigator then asks the subject to copy the spiral. Each hand is tested and scored separately. […] The tremor in the spiral is scored, not the movement of the limb.
Scores for TETRAS-PS subscale item 6 were summed for both hands and the mean change from baseline was calculated for Day 15 and Day 28 (FIG. 4 and Table 4). Statistical significance was calculated by Mann-Whitney non-parametric t-test (two tailed).

Cav3.2 = target: T1, Cav3.2 (Homo sapiens, UniProt O95180); test: Cav3.2 electrophysiology; format: cell-based; settings: Vh=−80 mV
T1 construct: expressed in transfected cells

Cav3 = tested on: T2, Cav3; test: Cav3 potency and state dependency, summary of Cav3 antagonist pharmacological properties; format: cell-based
T2 construct: rows headed: Cav3 potency

Cav3.3 = target: T3, Cav3.3 (Homo sapiens, UniProt Q9P0X4); test: Cav3.3 whole-cell voltage-clamp; format: cell-based
T3 construct: expressed in transfected cells; host or cells: HEK 293

[3] = tested on: patients with essential tremor; test: T-CALM: PK/PD, Cmin versus TETRAS-PS (Hill equation); format: in vivo, human
Excerpt: Pharmacodynamic variables (Response) evaluated included change from baseline in TETRAS performance subscale, TETRAS activities of daily living, TETRAS total score.

[4] = target: cannabinoid 2 receptor (CB2) (Homo sapiens, UniProt P34972); test: Cannabinoid 2 receptor binding
[5] = tested on: patients with essential tremor; test: T-CALM: TETRAS activities of daily living subscale; format: in vivo, human; settings: for TETRAS-ADL Score, Median (minimum, maximum) / TETRAS-ADL Score, Mean (SD): post-hoc
Excerpt: The sum of the individual scores provides the overall score, ranging from 0 to 48. The complete TETRAS ADL Subscale is as follows.
Rate tremor's impact on activities of daily living (0-4 scoring). • 1. Speaking • 0=Normal • 1=Slight voice tremulousness, only when “nervous”. • 2=Mild voice tremor. All words easily understood. • 3=Moderate voice tremor. Some words difficult to understand. • 4=Severe voice tremor. Most words difficult to understand. • 2. Feeding with a spoon • 0=Normal • 1=Slightly abnormal. […] Spills a little. • 3=Moderately abnormal. Spills a lot or changes strategy to complete task such as using two hands or leaning over. • 4=Severely abnormal Cannot feed with a spoon. • 3. Drinking from a glass • 0=Normal. • 1=Slightly abnormal. […] Spills a little. • 3=Moderately abnormal. Spills a lot or changes strategy to complete task such as using two hands or leaning over. • 4=Severely abnormal. Cannot drink from a glass or uses straw or sippy cup. • 4. Hygiene • 0=Normal. • 1=Slightly abnormal. […] Some difficulty but can complete task. • 3=Moderately abnormal. Unable to do most fine tasks such as putting on lipstick or shaving unless changes strategy such as using two hands or using the less affected hand. • 4=Severely abnormal. Cannot complete hygiene activities independently. • 5. Dressing • 0=Normal. • 1=Slightly abnormal. […] Able to do everything but has difficulty due to tremor. • 3=Moderately abnormal. Unable to do most dressing unless uses strategy such as using Velcro, buttoning shirt before putting it on or avoiding shoes with laces. • 4=Severely abnormal. Cannot dress independently. • 6. Pouring • 0=Normal. • 1=Slightly abnormal. […] Must be very careful to avoid spilling but may spill occasionally. • 3=Moderately abnormal. Must use two hands or uses other strategies to avoid spilling. • 4=Severely abnormal. Cannot pour. • 7. Carrying food trays, plates or similar items • 0=Normal • 1=Slightly abnormal. […] Must be very careful to avoid spilling items on food tray. • 3=Moderately abnormal. Uses strategies such as holding tightly against body to carry. • 4=Severely abnormal. Cannot carry food trays or similar items. • 8. Using Keys • 0=Normal • 1=Slightly abnormal. Tremor is present but can insert key with one hand without difficulty. • 2=Mildly abnormal. Commonly misses target but still routinely puts key in lock with one hand. • 3=Moderately abnormal. Needs to use two hands or other strategies to put key in lock. • 4=Severely abnormal. Cannot put key in lock. • 9. Writing • 0=Normal • 1=Slightly abnormal. […] Difficulty writing due to the tremor • 3=Moderately abnormal. Cannot write without using strategies such as holding the writing hand with the other hand, holding pen differently or using large pen. • 4=Severely abnormal. Cannot write. • 10. Working. If patient is retired, ask as if they were still working. If the patient is a housewife, ask the question as it relates to housework: • 0=Normal. • 1=Slightly abnormal. […] Tremor interferes with work; able to do everything, but with errors. • 3=Moderately abnormal. Unable to continue working without using strategies such as changing jobs or using special equipment. • 4=Severely abnormal. Cannot perform any job or household work. • 11. Overall disability with the most affected task (Name task, e.g. using computer mouse, writing, etc) • Task • 0=Normal. • 1=Slightly abnormal. […] Tremor interferes with task but is still able to perform task. • 3=Moderately abnormal. Can do task but must use strategies. • 4=Severely abnormal. Cannot do the task. • 12.
Analyses of the TETRAS-ADL was conducted using the same type of ANCOVA model as described for the TETRAS-PS, using two-sided tests at the alpha=0.05 level of significance (FIG. 2 and Table 2).

[6] = doses up to 6000 μg/plate
[7] = Study PN004, subjects with schizophrenia, BID Days 1 to 28, CX-8998 N = 86, Olanzapine N = 47
[8] = Day 15, patients Minimally Improved by PGIC, N=17
[9] = Day 28, patients Minimally Improved by CGI-I, N=15
[10] = Day 28, patients Minimally Improved by PGIC, N=10

T3 sequence (Q9P0X4 whole entry, species assumed): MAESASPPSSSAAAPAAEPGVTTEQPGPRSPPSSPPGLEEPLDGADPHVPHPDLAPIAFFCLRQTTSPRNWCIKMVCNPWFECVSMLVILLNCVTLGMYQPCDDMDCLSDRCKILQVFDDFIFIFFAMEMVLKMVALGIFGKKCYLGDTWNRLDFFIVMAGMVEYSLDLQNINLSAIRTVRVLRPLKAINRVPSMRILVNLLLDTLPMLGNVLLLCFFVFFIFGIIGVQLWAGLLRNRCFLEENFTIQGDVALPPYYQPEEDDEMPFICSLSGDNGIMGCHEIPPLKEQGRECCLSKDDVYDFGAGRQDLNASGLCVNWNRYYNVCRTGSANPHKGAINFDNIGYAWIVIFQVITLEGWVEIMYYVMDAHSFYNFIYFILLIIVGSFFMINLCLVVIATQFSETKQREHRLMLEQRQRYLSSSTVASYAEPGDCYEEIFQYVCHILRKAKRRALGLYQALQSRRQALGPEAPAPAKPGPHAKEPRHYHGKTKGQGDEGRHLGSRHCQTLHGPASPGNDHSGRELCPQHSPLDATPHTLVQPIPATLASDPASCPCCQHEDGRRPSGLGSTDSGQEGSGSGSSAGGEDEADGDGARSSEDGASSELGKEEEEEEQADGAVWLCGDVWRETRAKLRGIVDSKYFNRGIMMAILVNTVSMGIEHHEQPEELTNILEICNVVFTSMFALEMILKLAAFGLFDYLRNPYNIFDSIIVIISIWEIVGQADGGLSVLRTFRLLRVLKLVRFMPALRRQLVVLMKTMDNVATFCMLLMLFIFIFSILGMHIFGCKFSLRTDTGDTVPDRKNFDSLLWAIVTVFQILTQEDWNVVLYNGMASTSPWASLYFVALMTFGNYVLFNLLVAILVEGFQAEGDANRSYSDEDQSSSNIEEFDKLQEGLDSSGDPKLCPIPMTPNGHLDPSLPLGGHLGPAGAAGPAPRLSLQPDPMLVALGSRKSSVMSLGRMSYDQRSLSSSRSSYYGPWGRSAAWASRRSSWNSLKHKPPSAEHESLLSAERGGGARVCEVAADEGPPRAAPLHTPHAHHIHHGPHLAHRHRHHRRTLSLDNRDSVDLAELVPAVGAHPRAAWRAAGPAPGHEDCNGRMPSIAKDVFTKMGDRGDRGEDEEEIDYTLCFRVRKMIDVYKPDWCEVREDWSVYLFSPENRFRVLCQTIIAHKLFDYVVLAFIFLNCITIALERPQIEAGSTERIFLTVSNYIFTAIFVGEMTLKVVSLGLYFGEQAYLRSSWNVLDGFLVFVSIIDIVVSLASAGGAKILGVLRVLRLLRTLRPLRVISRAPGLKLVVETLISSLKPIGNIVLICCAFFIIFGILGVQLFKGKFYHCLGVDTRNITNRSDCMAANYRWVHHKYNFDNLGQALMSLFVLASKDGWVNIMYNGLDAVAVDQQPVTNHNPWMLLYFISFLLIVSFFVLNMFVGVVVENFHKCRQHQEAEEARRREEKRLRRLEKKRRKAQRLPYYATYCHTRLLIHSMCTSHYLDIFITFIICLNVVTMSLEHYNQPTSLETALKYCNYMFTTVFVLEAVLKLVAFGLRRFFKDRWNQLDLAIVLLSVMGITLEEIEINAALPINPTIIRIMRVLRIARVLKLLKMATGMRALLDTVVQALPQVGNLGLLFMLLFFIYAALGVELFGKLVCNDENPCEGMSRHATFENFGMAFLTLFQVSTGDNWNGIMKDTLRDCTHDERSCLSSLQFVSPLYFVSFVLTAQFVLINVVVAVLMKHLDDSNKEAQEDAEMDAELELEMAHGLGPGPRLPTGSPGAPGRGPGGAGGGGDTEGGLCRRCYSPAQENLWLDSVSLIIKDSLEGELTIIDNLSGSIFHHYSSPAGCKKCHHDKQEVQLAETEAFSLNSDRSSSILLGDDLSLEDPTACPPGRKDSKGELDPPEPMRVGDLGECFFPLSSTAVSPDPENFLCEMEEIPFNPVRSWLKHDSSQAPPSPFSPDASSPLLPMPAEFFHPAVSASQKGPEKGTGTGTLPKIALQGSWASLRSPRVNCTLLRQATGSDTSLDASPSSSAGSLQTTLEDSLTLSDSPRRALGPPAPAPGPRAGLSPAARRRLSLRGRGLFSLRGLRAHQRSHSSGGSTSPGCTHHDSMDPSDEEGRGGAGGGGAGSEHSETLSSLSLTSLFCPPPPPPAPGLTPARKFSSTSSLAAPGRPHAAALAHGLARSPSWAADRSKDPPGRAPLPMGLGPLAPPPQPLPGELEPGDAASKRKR
cannabinoid 2 receptor (CB2), sequence (P34972 whole entry, species assumed): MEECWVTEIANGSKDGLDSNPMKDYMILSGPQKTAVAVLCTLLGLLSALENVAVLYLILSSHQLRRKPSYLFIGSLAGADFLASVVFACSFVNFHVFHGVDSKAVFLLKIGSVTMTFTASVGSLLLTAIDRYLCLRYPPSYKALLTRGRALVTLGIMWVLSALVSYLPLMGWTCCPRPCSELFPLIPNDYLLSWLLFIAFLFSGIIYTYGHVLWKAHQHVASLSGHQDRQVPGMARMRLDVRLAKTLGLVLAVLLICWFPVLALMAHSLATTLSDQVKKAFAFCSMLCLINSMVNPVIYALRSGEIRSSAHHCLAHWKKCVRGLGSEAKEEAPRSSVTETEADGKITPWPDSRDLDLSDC
T1 sequence (O95180 whole entry): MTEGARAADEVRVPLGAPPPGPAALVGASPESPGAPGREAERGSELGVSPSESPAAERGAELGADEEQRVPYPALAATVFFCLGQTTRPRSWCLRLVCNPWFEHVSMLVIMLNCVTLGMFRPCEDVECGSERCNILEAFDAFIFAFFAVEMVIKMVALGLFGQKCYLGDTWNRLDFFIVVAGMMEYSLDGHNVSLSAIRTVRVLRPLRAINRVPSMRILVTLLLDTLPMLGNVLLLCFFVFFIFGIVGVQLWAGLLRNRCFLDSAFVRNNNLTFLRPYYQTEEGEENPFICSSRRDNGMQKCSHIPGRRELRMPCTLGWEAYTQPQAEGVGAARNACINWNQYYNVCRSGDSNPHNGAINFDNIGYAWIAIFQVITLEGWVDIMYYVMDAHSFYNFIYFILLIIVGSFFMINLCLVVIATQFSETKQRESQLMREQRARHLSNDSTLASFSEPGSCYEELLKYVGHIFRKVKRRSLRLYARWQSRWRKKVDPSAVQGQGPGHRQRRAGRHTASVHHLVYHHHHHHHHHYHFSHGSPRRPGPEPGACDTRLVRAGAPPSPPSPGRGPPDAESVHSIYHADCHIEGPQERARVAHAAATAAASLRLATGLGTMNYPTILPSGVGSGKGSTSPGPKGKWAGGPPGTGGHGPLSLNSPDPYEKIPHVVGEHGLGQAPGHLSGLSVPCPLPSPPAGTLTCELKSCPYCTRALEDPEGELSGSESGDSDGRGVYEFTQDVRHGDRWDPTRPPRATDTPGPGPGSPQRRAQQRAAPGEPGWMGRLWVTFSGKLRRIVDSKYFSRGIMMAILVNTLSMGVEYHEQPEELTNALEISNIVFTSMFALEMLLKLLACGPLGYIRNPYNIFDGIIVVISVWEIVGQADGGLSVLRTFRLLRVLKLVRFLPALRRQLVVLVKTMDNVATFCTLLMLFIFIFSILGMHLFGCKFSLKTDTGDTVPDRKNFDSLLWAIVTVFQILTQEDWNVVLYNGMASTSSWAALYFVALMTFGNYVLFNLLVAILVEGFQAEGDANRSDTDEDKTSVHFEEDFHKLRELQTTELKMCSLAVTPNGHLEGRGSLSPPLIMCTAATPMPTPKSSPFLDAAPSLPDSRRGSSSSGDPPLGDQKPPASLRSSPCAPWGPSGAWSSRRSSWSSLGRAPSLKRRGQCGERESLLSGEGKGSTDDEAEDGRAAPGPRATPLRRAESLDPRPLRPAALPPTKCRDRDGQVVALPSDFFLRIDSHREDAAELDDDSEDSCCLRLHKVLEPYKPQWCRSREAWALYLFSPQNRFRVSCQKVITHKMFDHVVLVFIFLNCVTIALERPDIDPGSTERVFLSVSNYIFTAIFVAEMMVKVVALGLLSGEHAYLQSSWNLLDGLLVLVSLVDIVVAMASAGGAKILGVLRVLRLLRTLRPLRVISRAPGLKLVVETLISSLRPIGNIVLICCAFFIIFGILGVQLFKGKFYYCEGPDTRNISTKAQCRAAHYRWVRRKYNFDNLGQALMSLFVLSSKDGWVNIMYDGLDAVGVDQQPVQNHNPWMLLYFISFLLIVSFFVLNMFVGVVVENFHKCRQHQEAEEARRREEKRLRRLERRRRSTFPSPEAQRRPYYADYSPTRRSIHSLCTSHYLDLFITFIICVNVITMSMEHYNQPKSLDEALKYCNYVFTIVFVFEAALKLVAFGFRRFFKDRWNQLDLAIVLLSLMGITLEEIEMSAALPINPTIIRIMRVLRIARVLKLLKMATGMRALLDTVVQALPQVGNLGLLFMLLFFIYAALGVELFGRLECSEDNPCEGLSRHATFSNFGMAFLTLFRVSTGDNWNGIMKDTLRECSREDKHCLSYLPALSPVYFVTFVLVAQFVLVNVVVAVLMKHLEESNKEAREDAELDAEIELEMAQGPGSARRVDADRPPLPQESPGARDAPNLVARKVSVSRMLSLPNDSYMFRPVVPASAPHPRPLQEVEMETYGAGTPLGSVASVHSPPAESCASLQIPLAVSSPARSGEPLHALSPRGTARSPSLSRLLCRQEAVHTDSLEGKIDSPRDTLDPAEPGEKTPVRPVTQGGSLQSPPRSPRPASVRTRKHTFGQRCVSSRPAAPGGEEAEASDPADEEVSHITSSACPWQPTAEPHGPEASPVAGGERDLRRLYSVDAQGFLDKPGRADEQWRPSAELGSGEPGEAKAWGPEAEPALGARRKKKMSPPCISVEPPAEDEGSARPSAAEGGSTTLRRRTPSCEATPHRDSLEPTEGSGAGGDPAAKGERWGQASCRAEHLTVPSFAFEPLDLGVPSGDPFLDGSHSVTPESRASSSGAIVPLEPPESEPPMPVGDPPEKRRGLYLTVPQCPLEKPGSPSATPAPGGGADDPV

CC(C)c1ccc(CC(=O)N[C@H](C)c2ccc(OCC(F)(F)F)cn2)cc1 [CX-8998]
Anxiety [1, 7]: 2 (2.3)
At least 1 adverse event [1, 7]: 41 (47.7)
Chronic pharyngitis [1, 7]: 2 (2.3)
Dizziness [1, 7]: 2 (2.3)
Headache [1, 7]: 2 (2.3)
Insomnia [1, 7]: 13 (15.1)
Rhinopharyngitis [1, 7]: 2 (2.3)
Schizophrenia [1, 7]: 3 (3.5)
Sinus tachycardia [1, 7]: 2 (2.3)
Somnolence [1, 7]: 2 (2.3)
Subjects who discontinued treatment because of adverse events ([1]; in vivo): 10.5%
Subjects with dizziness and vertigo ([1]; in vivo): 4.7%
Change from baseline in TETRAS-PS spiral item, mean ([2]; Day 15 (8 mg BID)): −0.41
Change from baseline in TETRAS-PS spiral item, mean ([2]; Day 28 (10 mg BID)): −0.658
IC50 (Cav3.2): 96 nM
IC50 (Cav3): 70 to 100 nM
IC50 (Cav3.3; Vh −80 mV): ~84 nM and 84 nM
IC50 (Cav3.3; Vh=−100 mV): ~2400 nM and 2400 nM
Emax, change from baseline in TETRAS-PS ([3]; Cmin at steady state): approximately −4.1
EC50 ([3]; Homo sapiens, TETRAS-PS): ~250 nM
inhibition at 10 µM ([4]; 10 μM): 53%
IC50 ([4]; calculated): 5340 nM
Change from baseline in TETRAS-ADL, LS mean ([5]; Day 15 (8 mg BID)): −4.5±0.87 and −4.5
TETRAS-ADL Score, Median (minimum, maximum) ([5]; Day 15, patients Minimally Improved by CGI-I, N=19): −2.0
TETRAS-ADL Score, Mean (SD) ([5]; Day 15, patients Minimally Improved by CGI-I, N=19, reduction from baseline): −3.7 (4.21)
TETRAS-ADL Score, Mean (SD) [5, 8]: −3.3 (4.27)
TETRAS-ADL Score, Median (minimum, maximum) [5, 8]: −4.0
Change from baseline in TETRAS-ADL, LS mean ([5]; Day 28 (10 mg BID)): −4.5±1.12 and −4.5
TETRAS-ADL Score, Mean (SD) [5, 9]: −4.4 (8.10)
TETRAS-ADL Score, Median (minimum, maximum) [5, 9]: −1.0 (−24, 3)
TETRAS-ADL Score, Mean (SD) [5, 10]: −1.6 (3.84)
TETRAS-ADL Score, Median (minimum, maximum) [5, 10]: −1.0 (−7, 3)
>5 to 10 point worsening ([5]; TETRAS-ADL, Day 15): 0 n (%)
>10 point worsening ([5]; TETRAS-ADL, Day 15): 0 n (%)
0 change ([5]; TETRAS-ADL, Day 28): 5 (13.5%) n (%)
>0 to 1 point improvement ([5]; TETRAS-ADL, Day 28): 2 (5.4%) n (%)
>0 to 1 point worsening ([5]; TETRAS-ADL, Day 28): 3 (8.1%) n (%)
>1 to 2.5 point improvement ([5]; TETRAS-ADL, Day 28): 3 (8.1%) n (%)
>1 to 2.5 point worsening ([5]; TETRAS-ADL, Day 28): 3 (8.1%) n (%)
>2.5 to 5 point improvement ([5]; TETRAS-ADL, Day 28): 7 (18.9%) n (%)
>2.5 to 5 point worsening ([5]; TETRAS-ADL, Day 28): 3 (8.1%) n (%)
>5 to 10 point improvement ([5]; TETRAS-ADL, Day 28): 6 (16.2) n (%)
>5 to 10 point worsening ([5]; TETRAS-ADL, Day 28): 0 n (%)
>10 point improvement ([5]; TETRAS-ADL, Day 28): 5 (13.5%) n (%)
>10 point worsening ([5]; TETRAS-ADL, Day 28): 0 n (%)
Ames assay result [6]: negative
